The results in this text go back to patent US7981911B2, “Pharmaceutical formulations” (Abbott Laboratories, priority 1999, dated 2011).

For orientation: bioavailability means the share of a dose that reaches the circulation, judged against a reference dose that is usually intravenous. A low value points to poor availability.

This data set can be described thus: oral bioavailability in dogs. Format: in vivo. Conditions: both sexes, beagle, dog, plasma; unformulated solid in a capsule dosage form; 5 mg/kg oral dose in dogs. On the procedure: Dogs (beagle dogs, mixed sexes, weighing 7-14 kg) were fasted overnight prior to dosing, but were permitted water ad libitum. Each dog received a 100 μg/kg subcutaneous dose of histamine approximately 30 minutes prior to dosing. Each dog received a single dosage form corresponding to a 5 mg/kg dose of the drug. The dose was followed by approximately 10 milliliters of water. Blood samples were obtained from each animal prior to dosing and 0.25, 0.5, 1.0, 1.5, 2, 3, 4, 6, 8, 10, and 12 hours after drug administration. The plasma was separated from the red cells by centrifugation and frozen (−30° C.) until analysis. Concentrations of parent drug were determined by reverse phase HPLC with low wavelength UV detection following liquid-liquid extraction of the plasma samples. The parent drug area under the curve was calculated by the trapezoidal method over the time course of the study. The absolute bioavailability of each test composition was calculated by comparing the area under the curve after oral dosing to that obtained from a single intravenous dose. Each capsule or capsule composition was evaluated in a group containing at least six dogs; the values reported are averages for each group of dogs.

On to `CC(C)c1nc(CN(C)C(=O)NC(C(=O)NC(Cc2ccccc2)CC(O)C(Cc2ccccc2)NC(=O)OCc2cncs2)C(C)C)cs1` (stereo not shown) [compound of formula I], for which the bioavailability is below 2%.
